Assay in all cases: whole-cell patch clamp, HEK293T cells expressing mutant
Assay type in all cases: cell-based
Common to all, as to conditions: for relative responsiveness: 100 µM agonist 2 s, relative to ATP (100%)

The target of assay [1] is T1, rP2X4R Y292A mutant (Rattus norvegicus, UniProt P51577, Y292A).
T1 construct: expressed in transfected cells; host or cells: HEK293T
T1 sequence (P51577 1-388 Y292A): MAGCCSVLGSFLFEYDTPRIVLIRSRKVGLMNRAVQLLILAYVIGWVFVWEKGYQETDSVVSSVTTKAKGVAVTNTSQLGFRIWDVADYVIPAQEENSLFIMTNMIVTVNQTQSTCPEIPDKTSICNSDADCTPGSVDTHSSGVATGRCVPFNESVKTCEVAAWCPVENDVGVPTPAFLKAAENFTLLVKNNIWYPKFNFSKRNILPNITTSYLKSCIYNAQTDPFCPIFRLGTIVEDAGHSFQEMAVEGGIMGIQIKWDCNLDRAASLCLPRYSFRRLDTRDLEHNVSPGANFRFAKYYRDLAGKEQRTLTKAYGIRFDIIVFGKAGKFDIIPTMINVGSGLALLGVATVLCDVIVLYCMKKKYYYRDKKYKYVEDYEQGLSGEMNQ
As for the experimental part:
(§1) To express the recombinant channels, we used human embryonic kidney (HEK) 293T cells (American Type Culture Collection, Rockville, MD, USA) grown in Dulbecco modified Eagle’s medium (Thermo Fisher Scientific, Waltham, MA) supplemented with 10% fetal bovine serum (Sigma-Aldrich, St Louis, MO), 50 U/ml penicillin and 50 µg/ml streptomycin (both Thermo Fisher Scientific, Waltham, MA) in a humidified 5% CO2 and 95% air at 37°C. Cells were cultured in 75 cm^2 plastic culture flasks (NUNC, Rochester, NY) for 36–72 hours until reaching 80–95% confluence. Before the day of transfection, the cells were plated on 35 mm culture dishes (Sarstedt, Newton, NC) and incubated at 37°C for at least 24 h. Transfection was done using 2 µg of either WT or mutant receptor DNA with 2 µl of JetPrime reagent in 2 ml of Dulbecco modified Eagle’s medium, according to manufacturer’s instructions (PolyPlus-transfection, Illkirch, France). Transfected cells were identified by the fluorescence signal of EGFP using the Olympus IX71 inverted research microscope with fluorescence illuminators (Model IX71; Olympus, Melville, NY).
(§2) cDNAs encoding the sequences of the rP2X4 and mutated subunits were subcloned into the pIRES2-EGFP vector (Clontech, Mountain View, CA, USA). To generate the mutants, oligonucleotides (synthesized and provided by VBC-Genomics, Vienna, Austria or Sigma Aldrich) containing specific mutagenesis mismatches were introduced into the rP2X4/pIRES2-EGFP template using PfU Ultra DNA polymerase (Thermo Fisher Scientific). A High-Speed Plasmid Mini Kit (Geneaid, Taipei City, Taiwan) was used to isolate the plasmids for transfection. Dye terminator cycle sequencing (ABI PRISM 3100, Applied Biosystems, Foster City, CA) was used to identify and verify the presence of the mutations. The sequencing was performed by the DNA Sequencing Laboratory, Institute of Microbiology, ASCR, Prague.
(§3) ATP-induced currents were recorded from whole cells clamped to −60 mV using an Axopatch 200B patch-clamp amplifier (Axon Instruments, Union City, CA). The recordings were captured and stored using the Digidata 1322A and pClamp9 software package (Axon Instruments). During the experiments, the cell culture was perfused with a bath solution containing: 142 mM NaCl, 3 mM KCl, 2 mM CaCl2, 1 mM MgCl2, 10 mM 4-(2-Hydroxyethyl)piperazine-1-ethanesulfonic acid (HEPES) and 10 mM D-glucose, adjusted to pH 7.3 with 1 M NaOH. The patch electrodes were filled with a solution containing: 154 mM CsCl, 11 mM EGTA and 10 mM HEPES, adjusted to pH 7.2 with 1.6 M CsOH. The whole-cell configuration was used to abolish the influence of natively present metabotropic receptors for ATP and we used intracellular cesium to block any kind of possible background potassium conductance. Potency of ATP was measured based on the activation of naïve (not previously stimulated) receptors using a short (2–5 s) application of various concentrations of ATP. The results are expressed as molar concentration of ATP required to produce 50% of the maximal response (EC50). One or two responses were recorded from one cell, if not otherwise stated, and responses from different cells were pooled. The maximum current amplitude (Imax) was measured in response to application of supramaximal concentrations (100–1000 µM) of ATP. Responsiveness to P2XR agonists 2-MeS-ATP, ATPγS, BzATP, and α,β-meATP, all applied in 100 µM concentration, was expressed as percentage of response in comparison to 100 µM ATP treatment for selected mutants. In all mutants, the whole cell currents were also measured in the presence of 3 µM IVM, which was dissolved in dimethyl sulfoxide, stored in stock solutions at 10 mM, and diluted to required concentrations in bath solution in the day of experiment. The control and drug containing solutions were applied via a rapid (exchange time 30–40 ms) perfusion system (RSC-200, BIOLOGIC, Claix, France). All other chemicals are from Sigma-Aldrich. […]

Assay [2] has as its target T2, rP2X4R T211A mutant (Rattus norvegicus, UniProt P51577, T211A).
T2 construct: expressed in transfected cells; host or cells: HEK293T
T2 sequence (P51577 1-388 T211A): T1 sequence (P51577 1-388 Y292A) with T211A, A292Y
As for the experimental part:
as §1, §2, §3

The target of assay [3] is T3, rP2X4R D280A mutant (Rattus norvegicus, UniProt P51577, D280A).
T3 construct: expressed in transfected cells; host or cells: HEK293T
T3 sequence (P51577 1-388 D280A): T1 sequence (P51577 1-388 Y292A) with D280A, A292Y
As for the experimental part: as §1, §2, §3

[4] abbreviates: 100 µM ATP 60 s, biexponential fit.
Where [5] appears, read: contribution of τdes2, 100 µM ATP 60 s.
Where [6] appears, read: decay after removal of 1 or 3 µM ATP, 3 µM IVM.
Setting [7] is: naïve receptors, 2–5 s application.
Where [8] appears, read: 3 µM IVM 4-6 min vs IVM-untreated.

Residue numbers refer to the chain shown, from its start.

Consider “2′(3′-O-(4-Benzoylbenzoyl)adenosine 5′-triphosphate [BzATP]”, for which the relative responsiveness is 28.9±8.2% in assay [1], 23.4±4.7 % in assay [2] and 25.4±1.5% in assay [3].
On to `CSc1nc(N)c2ncn([C@@H]3O[C@H](COP(=O)(O)OP(=O)(O)OP(=O)(O)O)[C@@H](O)[C@H]3O)c2n1` [2-MeS-ATP, 2-(Methylthio)adenosine 5′-triphosphate], for which the relative responsiveness in assay [1] was determined as 49.8±8.6%; in assay [2], 79.3±6.7%; in assay [3] it was 56.3±7.8%.
In the case of `Nc1ncnc2c1ncn2[C@@H]1O[C@H](COP(=O)(O)OP(=O)(O)OP(=O)(O)O)[C@@H](O)[C@H]1O` [ATP], the τdes1 in assay [1] (setting [4]) was 1.9 ± 0.2 s; in assay [2] (setting [4]), 0.9 ± 0.4 s; in assay [3] (setting [4]) it was 3.9 ± 1.2 s. The τdes2 in assay [1] (setting [4]) came to 15.8 ± 0.2 s; in assay [2] (setting [4]), 8.3 ± 2.4 s; in assay [3] (setting [4]) it was 22.9 ± 7.8 s. The Imax in assay [1] (100–1000 µM ATP) is listed as 1.9 ± 0.3 nA; in assay [2] (100–1000 µM ATP), 2.3 ± 0.3 nA; in assay [3] (100–1000 µM ATP) it was 0.7 ± 0.1 nA. Besides, the “Imax+IVM” value turned out to be 4.3 ± 0.3 nA in assay [1] (ATP after 3 µM IVM 4-6 min), 3.9 ± 0.7 nA in assay [2] (ATP after 3 µM IVM 4-6 min) and 3.6 ± 0.4 nA in assay [3] (ATP after 3 µM IVM 4-6 min). Also, the “A2 /(A1+A2)” value was determined as 57 ± 3% in assay [1] (setting [5]), 60 ± 8% in assay [2] (setting [5]) and 62 ± 6% in assay [3] (setting [5]). The “τoff +IVM” value in assay [1] (setting [6]) turned out to be 11 ± 1.2 s; in assay [2] (setting [6]) it was 28 ± 2.5 s; in assay [3] (setting [6]), 5.5 ± 0.3 s. Moreover, the figures for the half-maximal effective concentration (EC50) in assay [1] (setting [7]), in assay [2] (setting [7]) and in assay [3] (setting [7]) were 7.2 ± 1.9 µM, 2.6 ± 0.6 µM and 26 ± 8.2 µM, respectively. Further, the τdes in assay [1] (weighted, 100 µM ATP 60 s) came out at 10 ± 1.5 s; in assay [2] (weighted, 100 µM ATP 60 s), 5.0 ± 1.1 s; in assay [3] (weighted, 100 µM ATP 60 s), 15 ± 3.7 s. The “EC50 rightward shift compared to WT” value in assay [3] is recorded as “approximately 10 fold”.
As for `Nc1ncnc2c1ncn2[C@@H]1O[C@H](CO[P@](=O)(O)O[P@](=O)(O)O[P@@](=O)(O)S)[C@@H](O)[C@H]1O` [ATPγS, Adenosine 5′-(γ-thio)triphosphate], the relative responsiveness was found to be 42.3±7.0% in assay [1], 61.8±6.1% in assay [2] and 55.7±3.8% in assay [3].
Turning to `CC[C@H](C)[C@H]1O[C@]2(CC[C@@H]1C)C[C@@H]1C[C@@H](C/C=C(\C)[C@@H](O[C@H]3C[C@H](OC)[C@@H](O[C@H]4C[C@H](OC)[C@@H](O)[C@H](C)O4)[C@H](C)O3)[C@@H](C)/C=C/C=C3\CO[C@@H]4[C@H](O)C(C)=C[C@@H](C(=O)O1)[C@]34O)O2` [IVM, ivermectin], the “Fold incr. Imax” value in assay [1] (setting [8]) is reported as 2.0 ± 0.3 fold; in assay [2] (setting [8]), 1.6 ± 0.3 fold; in assay [3] (setting [8]), 5.1 ± 0.5 fold.
As for `Nc1ncnc2c1ncn2C1OC(COP(=O)(O)CP(=O)(O)OP(=O)(O)O)C(O)C1O` (stereo not drawn) [α,β-meATP, α,β-methyleneadenosine 5′-triphosphate], the relative responsiveness in assay [1] worked out at 16.2±4.4 %; in assay [2], 39.1±7.2%; in assay [3], 33.1±6.0%.

The values above are taken from article PMC4232510, “Identification of Functionally Important Residues of the Rat P2X4 Receptor by Alanine Scanning Mutagenesis of the Dorsal Fin and Left Flipper Domains” (PLoS ONE, 2014).
